{"source": "patent US20110200662A1", "about": "“Method For The Treatment Of Proliferative Disorders Of The Eye” (priority 2008, published 2011)", "key": {"[1]": {"tested_on": "DNA repair response (RPA, γ-H2AX)", "conditions": "non-proliferating cells; cited from earlier work"}, "[2]": {"tested_on": "cell proliferation", "conditions": "cited from earlier work"}, "[3]": {"tested_on": "approximately 60 different human cancer cell lines", "test": "NCI DTP Human Tumor Cell Line Screen (colorimetric assay, 48 hours)", "type": "cell-based", "conditions": "average value across the cell lines, 48 hours incubation", "description": "FIG. 1 summarizes the screening results obtained with forty different anticancer agents in the National Cancer Institute (NCI) DTP Human Tumor Cell Line Screen in which approximately 60 different human cancer cell lines were incubated for 48 hours with the anticancer drugs. […] For details on the assay, find on the wide world web at dtp.nci.nih.gov/branches/btb/ivclsp. FIG. 1 presents for each drug the average value across the cell lines of the TGI, the LC50, and the ratio of LC50 to TGI.\nIn a preferred embodiment the drug is bizelesin. Bizelesin has a number of unexpected properties that make it highly suited for treating proliferative disorders of the eye. The drug is an ultra-potent irreversible inhibitor of cell proliferation. As few as 1 to approximately 10 bizelesin-DNA crosslinks can inhibit cell proliferation. The small number of drug molecules per cell needed to inhibit clonogenic potential limits collateral damage to cellular processes in nonproliferating cells. […] There is a large difference between the bizelesin concentration that inhibits cell proliferation and the concentration that kills cells. This unexpected property is in sharp contrast to typical anticancer drugs as evidence by the data shown in FIG. 1, which summarizes screening results obtained with forty different anticancer agents in the National Cancer Institute (NCI) DTP Human Tumor Cell Line Screen. […]"}, "[4]": {"tested_on": "approximately 60 different human cancer cell lines", "conditions": "average value across the cell lines, 48 hours incubation; cited from earlier work"}, "[5]": {"conditions": "unless given intravascularly; cited from earlier work"}, "[6]": {"tested_on": "retinal neovascularization", "test": "Mouse model of ischemic proliferative retinopathy, intravitreal injection", "quoted_text": "Intravitreal bizelesin was evaluated in the mouse model of ischemic proliferative retinopathy.\nBizelesin was dissolved in DMSO PharmaSolvent (Gaylord Chemical, Inc.) at 20 microgram/ml and filtered sterilized with a 0.2 micron Milliex-LG Millipore filter. […] The bizelesin solution was stored at −65 C or below. Immediately prior to administration the drug solution was thawed and diluted with sterile phosphate buffered saline (PBS).\nIn brief, for the ischemic proliferative retinopathy model, liters of C57BL/6 mice were exposed to 75% oxygen from P7 to P12 (P=age in days) and then returned to room air. On P12 the mice were anesthetized and given an intravitreal injection of 1 microliter of bizelesin solution or 1 microliter of control diluent. The dose of bizelesin ranged from 0.6 picogram to 0.6 nanograms. On the evening of P16 the mice were given an intravitreal injection of anti-mouse platelet endothelial cell adhesion molecule-1 (PECAM-1) antibody, which stain new blood vessels. On P17, the retinas were isolated, flat mounts prepared, and the area of neovascularization was determined with fluorescent microscopy and computerized image analysis."}, "[7]": {"tested_on": "choroidal neovascularization", "test": "Laser induced mouse model of choroidal neovascularization, intravitreal injection", "conditions": "for inhibition of neovascularization in the area of the laser burn: single intravitreal dose of 0.6 ng, day 14", "excerpt": "Details of the model are provided in Xie, B. et al., “Blockade of Sphingosine-1-phosphate Reduces Macrophage Influx and Retinal and Choroidal Neovascularization,” J Cell Physiol, 218(1): 192-8 (January 2009 Bizelesin was formulated in PBS as described in Example 1. In brief, 5-6 week old C57BL/6 mice on day 0 were anesthetized and choroidal neovascularization was induced by laser photocoagulation-induced rupture of Bruch's membrane. The mice were then given an intravitreal injection of 1 microliter of control diluent in one eye and in the contralateral fellow eye 1 microliter of solution containing 6 ng to 0.006 ng of Bizelesin. Ten mice were employed per dose level. On day 14 the mice were perfused with fluorescein-labeled dextran, the retinas were isolated, flat mounts prepared, and the area of neovascularization was determined with fluorescent microscopy and computerized image analysis."}, "[8]": {"tested_on": "HCT116 colon cancer cells", "conditions": "250 times the GC50 concentration for 4 days; cited from earlier work"}, "[9]": {"tested_on": "cellular DNA", "conditions": "cited from earlier work"}, "[10]": {"tested_on": "retinal fibrosis", "conditions": "long-term follow-up; cited from earlier work"}}}
{"molecule": "Cc1c[nH]c2c1[C@@]13C[C@@H]1CN(C(=O)c1cc4cc(NC(=O)c5cc6ccccc6o5)ccc4[nH]1)C3=CC2=O", "note": "[adozelesin]", "values": [{"measurement": "DNA repair response", "setting": "[1]", "result": "does not trigger A DNA repair response"}, {"measurement": "GI50 (inhibition of cell proliferation)", "setting": "[2]", "result": "picomolar to sub-picomolar range"}]}
{"molecule": "Cc1c[nH]c2c(O)cc3c(c12)[C@H](CCl)CN3C(=O)c1cc2cc(NC(=O)Nc3ccc4[nH]c(C(=O)N5C[C@@H](CCl)c6c5cc(O)c5[nH]cc(C)c65)cc4c3)ccc2[nH]1", "note": "[bizelesin]", "values": [{"measurement": "ratio of LC50 to TGI", "setting": "[3]", "result": 480}, {"measurement": "TGI (drug concentration that completely inhibited cell growth)", "setting": "[4]", "result": "picomolar range"}, {"measurement": "systemic bioavailability", "setting": "[5]", "result": "poor systemic bioavailability"}, {"measurement": "clinical evidence of ocular toxicity", "setting": "[6]; intravitreal 0.6 nanogram", "result": "without any clinical evidence of ocular toxicity"}, {"measurement": "average area of neovascularization compared to diluent (p value)", "setting": "[6]; single dose of 0.06 ng", "result": "highly statistically significant"}, {"measurement": "average area of neovascularization compared to diluent (p value)", "setting": "[6]; single dose of 0.6 ng", "result": "highly statistically significant"}, {"measurement": "inhibition of proliferative retinopathy and neovascularization", "setting": "[6]; single intravitreal injection of 0.6 nanogram on P12, read on P17", "result": "nearly complete inhibition"}, {"measurement": "clinical evidence of ocular toxicity", "setting": "[7]; intravitreal 6 ng to 0.006 ng", "result": "no clinical evidence of ocular toxicity"}, {"measurement": "inhibition of neovascularization in the area of the laser burn", "setting": "[7]", "result": "nearly complete inhibition"}, {"measurement": "inhibition of neovascularization in the area of the laser burn", "setting": "[7]; listed as Bizelesin", "result": "dramatic inhibition"}, {"measurement": "GI50 (inhibition of cell proliferation)", "setting": "[2]", "result": "picomolar to sub-picomolar range"}, {"measurement": "apoptosis", "setting": "[8]", "result": "did not cause apoptosis"}]}
{"molecule": "N.N.[Cl][Pt][Cl]", "note": "[cisplatin]", "values": [{"measurement": "DNA adducts formed at concentrations that inhibit cell growth by 50%", "setting": "[9]", "result": "approximately 14,000"}]}
{"molecule": "ranibizumab (antibody, chains of the INN, looked up, V domains shown) VH: EVQLVESGGGLVQPGGSLRLSCAASGYDFTHYGMNWVRQAPGKGLEWVGWINTYTGEPTYAADFKRRFTFSLDTSKSTAYLQMNSLRAEDTAVYYCAKYPYYYGTSHWYFDVWGQGTLVTVSS VL: DIQLTQSPSSLSASVGDRVTITCSASQDISNYLNWYQQKPGKAPKVLIYFTSSLHSGVPSRFSGSGSGTDFTLTISSLQPEDFATYYCQQYSTVPWTFGQGTKVEIK", "values": [{"measurement": "patients who developed retinal fibrosis", "setting": "[10]", "result": 50, "unit": "%"}]}
